Measured values: US8680159B2, “Bradykinin 1 receptor modulating compounds” (Gruenenthal GmbH, priority 2010, dated 2014)
Read-outs that look alike come from different tables or passages of the source.

Tests used:
[1] = biological target: T1, human B1R receptor (CHO K1 cells stably transfected with the human B1R gene) (Homo sapiens, UniProt P46663); assay: Functional study on the bradykinin receptor 1 (B1R), Ca2+ fluorescence (Fluo-4) FLIPR/Novostar assay, hB1R cells; format: cell-based
T1 construct: expressed in transfected cells; host or cells: CHO K1 cells (Chinese hamster ovary), stably transfected
T1 sequence (P46663 1-353): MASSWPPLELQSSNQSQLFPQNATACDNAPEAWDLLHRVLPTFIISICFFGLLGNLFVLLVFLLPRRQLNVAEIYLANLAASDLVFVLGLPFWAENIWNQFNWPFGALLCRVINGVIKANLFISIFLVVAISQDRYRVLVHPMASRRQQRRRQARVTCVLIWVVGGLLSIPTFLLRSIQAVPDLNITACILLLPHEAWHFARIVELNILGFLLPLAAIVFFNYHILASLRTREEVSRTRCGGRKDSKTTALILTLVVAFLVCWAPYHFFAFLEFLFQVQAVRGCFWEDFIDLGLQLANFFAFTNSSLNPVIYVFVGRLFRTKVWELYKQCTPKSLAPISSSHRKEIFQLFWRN
Procedure, shortened: (§1)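 Stably transfected CHO K1 cells carrying human or rat B1R were Fluo-4 loaded and Ca2+ fluorescence read by FLIPR or Novostar. Compounds were added first at 10 μM for % activation, then the EC80 agonist was applied after 6-20 min (human: Lys-Des-Arg9-bradykinin; rat: Des-Arg9-bradykinin). % inhibition is relative to maximum achievable inhibition, and IC50 comes from concentration series.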

[2] = biological target: T2, B1R receptor of the rat (CHO K1 cells stably transfected with the B1R gene of the rat) (Rattus norvegicus, UniProt P97583); assay: Functional study on the bradykinin receptor 1 (B1R), Ca2+ fluorescence (Fluo-4) FLIPR/Novostar assay, rB1R cells; format: cell-based; details: for inhibition at 10 µM: CHO-K1, 10 μM
T2 construct: expressed in transfected cells; host or cells: CHO K1 cells (Chinese hamster ovary), stably transfected
T2 sequence (P97583 1-337): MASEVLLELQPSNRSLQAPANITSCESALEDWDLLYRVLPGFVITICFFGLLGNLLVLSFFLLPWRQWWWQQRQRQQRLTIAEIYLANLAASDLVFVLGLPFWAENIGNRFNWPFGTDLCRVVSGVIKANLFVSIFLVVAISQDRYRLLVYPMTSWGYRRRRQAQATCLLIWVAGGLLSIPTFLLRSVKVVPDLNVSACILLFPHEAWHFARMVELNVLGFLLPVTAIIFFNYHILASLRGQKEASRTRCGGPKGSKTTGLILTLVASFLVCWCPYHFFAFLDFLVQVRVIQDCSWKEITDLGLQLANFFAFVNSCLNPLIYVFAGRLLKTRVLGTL
Procedure, shortened: as §1

[3] = CHO-K1, read-out: % Inhibition (h-B1R) at 10 μM
[4] = read-out: % Inhibition (r-B1R) at 10 μM

CN(C(=O)c1ccc2c(c1)C(NS(=O)(=O)c1c(Cl)cccc1C(F)(F)F)CCO2)C1CCN(c2ccncc2)CC1 (centres unmarked) [CC_H-47, 4-[[[2-Chloro-6-(trifluoromethyl)-phenyl]sulfonyl]amino]-N-methyl-N-(1-pyridin-4-yl-piperidin-4-yl)-3,4-dihydro-2H-chromene-6-carboxylic acid amide]
inhibition at 10 µM [1, 3]: 99%
inhibition at 10 µM [2, 4]: 104%

CN(C(=O)c1ccc2c(c1)C(NC(=O)c1cncnc1)CC2)C1CCN(c2ccncc2)CC1 (centres unmarked) [CC_H-48, N-[6-[Methyl-(1-pyridin-4-yl-piperidin-4-yl)-carbamoyl]-2,3-dihydro-1H-inden-1-yl]-pyrimidine-5-carboxylic acid amide]
inhibition at 10 µM [1, 3]: 96%
inhibition at 10 µM [2, 4]: 78%

CN(C(=O)c1ccc2c(c1)C(NC(=O)CCC1CCCC1)CCO2)C1CCN(c2ccncc2)CC1 (centres unmarked) [CC_H-49, 4-(3-Cyclopentyl-propanoylamino)-N-methyl-N-(1-pyridin-4-yl-piperidin-4-yl)-3,4-dihydro-2H-chromene-6-carboxylic acid amide]
inhibition at 10 µM [1, 3]: 99%
inhibition at 10 µM [2, 4]: 102%

O=C(NCCC1CCN(c2ccncc2)CC1)c1ccc2c(c1)C(NS(=O)(=O)c1c(Cl)cccc1C(F)(F)F)CC2 (centres unmarked) [CC_H-50, 3-[[[2-Chloro-6-(trifluoromethyl)-phenyl]sulfonyl]amino]-N-[2-(1-pyridin-4-yl-piperidin-4-yl)-ethyl]-2,3-dihydro-1H-indene-5-carboxylic acid amide]
inhibition at 10 µM [1, 3]: 100%
inhibition at 10 µM [2, 4]: 101%

CN(C(=O)N(C)C1CCc2ccc(C(=O)N(C)C3CCN(c4ccncc4)CC3)cc21)c1ccccc1Cl (centres unmarked) [CC_H-51, 3-[[(2-Chlorophenyl)-methyl-carbamoyl]-methyl-amino]-N-methyl-N-(1-pyridin-4-yl-piperidin-4-yl)-2,3-dihydro-1H-indene-5-carboxylic acid amide]
inhibition at 10 µM [1, 3]: 99%
inhibition at 10 µM [2, 4]: 90%

CN(C(=O)c1ccc2c(c1)C(NC(=O)c1cccc(Cl)c1Cl)CC2)C1CCN(c2ccc3cnccc3c2)CC1 (centres unmarked) [CC_H-52, 3-[(2,3-Dichloro-benzoyl)amino]-N-(1-isoquinolin-6-yl-piperidin-4-yl)-N-methyl-2,3-dihydro-1H-indene-5-carboxylic acid amide]
inhibition at 10 µM [1, 3]: 99%
inhibition at 10 µM [2, 4]: 98%

CN(C(=O)c1ccc2c(c1)C(NS(=O)(=O)c1c(Cl)cccc1C(F)(F)F)CC2)C1CCN(c2ccncc2)CC1 (centres unmarked) [CC_H-54, 3-[[[2-Chloro-6-(trifluoromethyl)-phenyl]sulfonyl]amino]-N-methyl-N-(1-pyridin-4-yl-piperidin-4-yl)-2,3-dihydro-1H-indene-5-carboxylic acid amide]
inhibition at 10 µM [1, 3]: 100%
inhibition at 10 µM [2, 4]: 104%

CN(C(=O)c1ccc2c(c1)C(NS(=O)(=O)Cc1ccccc1C(F)(F)F)CC2)C1CCN(c2ccc3cnccc3c2)CC1 (centres unmarked) [CC_H-55, N-(1-Isoquinolin-6-yl-piperidin-4-yl)-N-methyl-3-[[[2-(trifluoromethyl)-phenyl]-methylsulfonyl]amino]-2,3-dihydro-1H-indene-5-carboxylic acid amide]
inhibition at 10 µM [1, 3]: 99%
inhibition at 10 µM [2, 4]: 96%

CN(C(=O)NC1CCOc2ccc(C(=O)N(C)C3CCN(c4ccncc4)CC3)cc21)c1ccccc1Cl (centres unmarked) [CC_H-57, 4-[[(2-Chlorophenyl)-methyl-carbamoyl]amino]-N-methyl-N-(1-pyridin-4-yl-piperidin-4-yl)-3,4-dihydro-2H-chromene-6-carboxylic acid amide]
inhibition at 10 µM [1, 3]: 100%
% Inhibition (r-B1R) at 10 μM [2]: 101%

CN(C(=O)c1ccc2c(c1)CCC2NC(=O)C1CCCCC1)C1CCN(c2ccncc2)CC1 (centres unmarked) [CC_H-58, 1-(Cyclohexanecarbonylamino)-N-methyl-N-(1-pyridin-4-yl-piperidin-4-yl)-2,3-dihydro-1H-indene-5-carboxylic acid amide]
inhibition at 10 µM [1, 3]: 96%
inhibition at 10 µM [2, 4]: 77%

CN(C(=O)c1ccc2c(c1)C(NC(=O)CCC1CCCC1)CC2)C1CCN(c2ccncc2)CC1 (centres unmarked) [CC_H-59, 3-(3-Cyclopentyl-propanoylamino)-N-methyl-N-(1-pyridin-4-yl-piperidin-4-yl)-2,3-dihydro-1H-indene-5-carboxylic acid amide]
inhibition at 10 µM [1, 3]: 99%
inhibition at 10 µM [2, 4]: 103%

CN(C(=O)c1ccc2c(c1)CCC2NS(=O)(=O)Cc1ccccc1C(F)(F)F)C1CCN(c2ccncc2)CC1 (centres unmarked) [CC_H-61, N-Methyl-N-(1-pyridin-4-yl-piperidin-4-yl)-1-[[[2-(trifluoromethyl)-phenyl]-methylsulfonyl]amino]-2,3-dihydro-1H-indene-5-carboxylic acid amide]
inhibition at 10 µM [1, 3]: 100%
inhibition at 10 µM [2, 4]: 80%

CN(C(=O)c1ccc2c(c1)C(NC(=O)c1c(Cl)cccc1C(F)(F)F)CC2)C1CCN(c2ccc3cnccc3c2)CC1 (centres unmarked) [CC_H-62, 3-[[2-Chloro-6-(trifluoromethyl)-benzoyl]amino]-N-(1-isoquinolin-6-yl-piperidin-4-yl)-N-methyl-2,3-dihydro-1H-indene-5-carboxylic acid amide]
inhibition at 10 µM [1, 3]: 84%
inhibition at 10 µM [2, 4]: 101%

CN(C(=O)c1ccc2c(c1)C(NC(=O)c1cc(F)ccc1Cl)CCO2)C1CCN(c2ccncc2)CC1 (centres unmarked) [CC_H-63, 4-[(2-Chloro-5-fluoro-benzoyl)amino]-N-methyl-N-(1-pyridin-4-yl-piperidin-4-yl)-3,4-dihydro-2H-chromene-6-carboxylic acid amide]
inhibition at 10 µM [1, 3]: 99%
inhibition at 10 µM [2, 4]: 103%

CN(C(=O)c1ccc2c(c1)CCC2NC(=O)c1cc(F)ccc1Cl)C1CCN(c2ccncc2)CC1 (centres unmarked) [CC_H-64, 1-[(2-Chloro-5-fluoro-benzoyl)amino]-N-methyl-N-(1-pyridin-4-yl-piperidin-4-yl)-2,3-dihydro-1H-indene-5-carboxylic acid amide]
inhibition at 10 µM [1, 3]: 100%
inhibition at 10 µM [2, 4]: 87%

CN(C(=O)c1ccc2c(c1)CCC2NC(=O)CCC1CCCC1)C1CCN(c2ccncc2)CC1 (centres unmarked) [CC_H-65, 1-(3-Cyclopentyl-propanoylamino)-N-methyl-N-(1-pyridin-4-yl-piperidin-4-yl)-2,3-dihydro-1H-indene-5-carboxylic acid amide]
inhibition at 10 µM [1, 3]: 98%
inhibition at 10 µM [2, 4]: 48%

Cc1cccc(C)c1C(=O)NC1CCc2cc(C(=O)N(C)C3CCN(c4ccncc4)CC3)ccc21 (centres unmarked) [CC_H-66, 1-[(2,6-Dimethyl-benzoyl)amino]-N-methyl-N-(1-pyridin-4-yl-piperidin-4-yl)-2,3-dihydro-1H-indene-5-carboxylic acid amide]
inhibition at 10 µM [1, 3]: 99%
inhibition at 10 µM [2, 4]: 86%

CN(C(=O)c1ccc2c(c1)CCC2NC(=O)c1cccc(Cl)c1Cl)C1CCN(c2ccncc2)CC1 (centres unmarked) [CC_H-67, 1-[(2,3-Dichloro-benzoyl)amino]-N-methyl-N-(1-pyridin-4-yl-piperidin-4-yl)-2,3-dihydro-1H-indene-5-carboxylic acid amide]
inhibition at 10 µM [1, 3]: 100%
inhibition at 10 µM [2, 4]: 98%

CN(C(=O)c1ccc2c(c1)CCC2NC(=O)c1ccccc1Cl)C1CCN(c2ccncc2)CC1 (centres unmarked) [CC_H-68, 1-[(2-Chloro-benzoyl)amino]-N-methyl-N-(1-pyridin-4-yl-piperidin-4-yl)-2,3-dihydro-1H-indene-5-carboxylic acid amide]
inhibition at 10 µM [1, 3]: 96%
inhibition at 10 µM [2, 4]: 87%

CN(C(=O)c1ccc2c(c1)C(N(C)C(=O)C1CCCCC1)CC2)C1CCN(c2ccncc2)CC1 (centres unmarked) [CC_H-69, 3-(Cyclohexanecarbonyl-methyl-amino)-N-methyl-N-(1-pyridin-4-yl-piperidin-4-yl)-2,3-dihydro-1H-indene-5-carboxylic acid amide]
inhibition at 10 µM [1, 3]: 99%
% Inhibition (r-B1R) at 10 μM [2]: 104%

CN(C(=O)c1ccc2c(c1)C(N(C)C(=O)CCC1CCCC1)CC2)C1CCN(c2ccncc2)CC1 (centres unmarked) [CC_H-70, 3-(3-Cyclopentyl-propanoyl-methyl-amino)-N-methyl-N-(1-pyridin-4-yl-piperidin-4-yl)-2,3-dihydro-1H-indene-5-carboxylic acid amide]
inhibition at 10 µM [1, 3]: 100%
inhibition at 10 µM [2, 4]: 103%

O=C(NCCC1CCN(c2ccncc2)CC1)c1ccc2c(c1)C(NC(=O)c1ccccc1Cl)CC2 (centres unmarked) [Example H-01, 3-[(2-Chloro-benzoyl)amino]-N-[2-(1-pyridin-4-yl-piperidin-4-yl)-ethyl]-2,3-dihydro-1H-indene-5-carboxylic acid amide]
inhibition at 10 µM ([1]; CHO-K1, read-out: % inhibition (human B1R) at 10 μM): 100%
inhibition at 10 µM ([2]; read-out: % inhibition (rat B1R) at 10 μM): 102%
